Data: patent US20230090742A1, “AMINOPYRIMIDINYLAMINOBENZONITRILE DERIVATIVES AS NEK2 INHIBITORS” (Sumitomo Pharma Oncology, Inc., priority 2020, published 2023)
pIC50: −log10 of the molar value.

Columns and labels:
[1] = test system: phosphorylation of PP1α and HEC1; assay: Western blot analysis for phospho-PP1α and phospho-Hec1 in cell cycle synchronized MDA-MB-231 cells; type: cell-based; conditions: double thymidine block and nocodazole, 10, 50, 100, and 500 nM
Experimental: (§1) Reagents. MDA-MB-231 (Breast adenocarcinoma, triple negative breast cancer) and SW480 (colorectal adenocarcinoma, stem-like subtype) cells were purchased from ATCC and cultured as per manufacturer's instruction. Thymidine (Sigma, T9250) stock solution (100 mM) was prepared in PBS. 2′-Deoxycytidine (Sigma, D897) stock solution (240 mM) was prepared in distilled H2O. Nocodazole (Selleck Chemicals, S2775) stock solution (5 mg/mL) was made in dimethyl sulfoxide (DMSO). FxCycle Far Red stain (F10348) for cell cycle analysis was purchased from Thermo Fisher Scientific.
Antibodies. […]
Cell Cycle Synchronization. […] Effectiveness of NEK2 inhibitors (Cmpd-16 and Cmpd-18) were assessed by adding small molecule inhibitors with nocodozole at 10, 50, 100, and 500 nM concentration at the time of nocodazole addition. […]
Immunoblot Analysis. […] Whole cell lysates were sonicated and centrifuged at 16000×g for 10 minutes at 4° C., and protein concentration of the supernatant were determined using BCA Protein assay kit (ThermoScientific, 23225). Equal amounts of protein lysates (30 μg/lane and 10 μg/lane only for Histone H3 immunoblots) were fractionated on a NuPAGE Novex 4%-12% Bis-Tris Protein Gel (Thermo Fisher Scientific, NP0335BOX) and transferred onto a low fluorescence PVDF membrane (Millipore, IPFL07810). […] Li-Cor Image Studio software was used for western blot analysis and quantification

EZH2 expression = assay: Flow cytometry analysis for EZH2 expression in SW480 cells; type: cell-based; conditions: Homo sapiens, 24 hours treatment, 0-1000 nM, haploid and diploid cells, read-out: dose dependent decrease in EZH2 expression, IC50
Experimental: as §1
Antibodies. Polyclonal antibodies to phosphorylated-Ser55 Hec1 (PA5-85846; 1:1000) were purchased from ThermoFisher Scientific, and Phospho-Thr320 PP1α (2581S; 1:1000) and Total PP1α (2582S; 1:1000) were purchased from Cell Signaling Technologies. Monoclonal antibodies to Phospho-Ser10 Histone H3 (53348S; 1:1000), Total Histone H3 (14269; 1:5000), and EZH2-FITC (30233, 1:50) antibodies were purchased from Cell Signaling Technologies; Total Hec1 (ab109496; 1:10000) was purchased from Abcam; and Total NEK2 (sc-55601; 1:200) and GAPDH (sc-365062; 1:1000-2000) antibodies were purchased from Santa Cruz Technologies.
Flow Cytometry Analysis. […] A minimum of 100,000 events were analyzed in each sample, and the results were evaluated using FlowJo software. […]

pIC50 (EZH2 expression): 6.73
SMILES: N#Cc1c(Nc2nc(Nc3ccc(N4CCNCC4)cc3)ncc2Cl)cccc1OCc1ccccc1F [Compound 16, 2-((5-chloro-2-((4-(piperazin-1-yl)phenyl)amino)pyrimidin-4-yl)amino)-6-((2-fluorobenzyl)oxy)benzonitrile]
phosphorylation of PP1α and HEC1 (HistoneH3 phosphorylation as marker of mitosis) [1]: more specifically inhibited phosphorylation of PP1α and HEC1 without interfering in cell cycle progression than Cmpd-18
